Measurements published in paper PMC5824344 (ACS Chemical Biology, 2017).
pIC50: −log10 of the molar value. Entries after “also recorded” stand apart in the source; their conditions may differ. Like-named read-outs stand apart in the source and are kept apart here.

Tests used:
[1] = target: T1, rat liver ER GluII (Rattus norvegicus, UniProt A0A8I6GFL3); assay: ER α-glucosidase II inhibition with native-like fluorescently labelled glycan substrate (HPLC); format: biochemical
T1 construct: Rat liver ER, II; from tissue; host or cells: liver of male Wistar rats
T1 sequence (A0A8I6GFL3 33-944): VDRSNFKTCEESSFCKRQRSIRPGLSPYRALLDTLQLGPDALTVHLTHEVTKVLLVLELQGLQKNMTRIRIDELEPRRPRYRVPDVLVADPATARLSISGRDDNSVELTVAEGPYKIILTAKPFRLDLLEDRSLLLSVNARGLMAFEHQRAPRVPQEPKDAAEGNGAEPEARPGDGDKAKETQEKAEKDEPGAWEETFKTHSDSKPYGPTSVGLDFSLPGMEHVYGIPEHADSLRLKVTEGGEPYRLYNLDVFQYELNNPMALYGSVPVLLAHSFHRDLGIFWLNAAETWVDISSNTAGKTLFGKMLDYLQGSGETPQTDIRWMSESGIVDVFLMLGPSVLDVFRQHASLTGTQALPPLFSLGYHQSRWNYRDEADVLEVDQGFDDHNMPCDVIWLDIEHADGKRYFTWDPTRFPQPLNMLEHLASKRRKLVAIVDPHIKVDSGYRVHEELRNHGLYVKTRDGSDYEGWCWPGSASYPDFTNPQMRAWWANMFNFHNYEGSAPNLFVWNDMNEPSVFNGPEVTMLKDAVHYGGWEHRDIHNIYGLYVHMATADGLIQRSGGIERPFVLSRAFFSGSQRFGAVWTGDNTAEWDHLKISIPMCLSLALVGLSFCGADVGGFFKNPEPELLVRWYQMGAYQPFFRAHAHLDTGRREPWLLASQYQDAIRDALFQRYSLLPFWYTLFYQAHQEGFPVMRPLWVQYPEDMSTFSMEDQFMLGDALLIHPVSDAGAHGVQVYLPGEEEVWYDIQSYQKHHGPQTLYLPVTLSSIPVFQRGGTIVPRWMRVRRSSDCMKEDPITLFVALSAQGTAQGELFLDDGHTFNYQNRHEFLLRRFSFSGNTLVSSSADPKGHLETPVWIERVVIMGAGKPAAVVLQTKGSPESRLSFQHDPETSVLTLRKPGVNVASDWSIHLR
T1 sequence (A0A8I6ADW9 1-525 partner): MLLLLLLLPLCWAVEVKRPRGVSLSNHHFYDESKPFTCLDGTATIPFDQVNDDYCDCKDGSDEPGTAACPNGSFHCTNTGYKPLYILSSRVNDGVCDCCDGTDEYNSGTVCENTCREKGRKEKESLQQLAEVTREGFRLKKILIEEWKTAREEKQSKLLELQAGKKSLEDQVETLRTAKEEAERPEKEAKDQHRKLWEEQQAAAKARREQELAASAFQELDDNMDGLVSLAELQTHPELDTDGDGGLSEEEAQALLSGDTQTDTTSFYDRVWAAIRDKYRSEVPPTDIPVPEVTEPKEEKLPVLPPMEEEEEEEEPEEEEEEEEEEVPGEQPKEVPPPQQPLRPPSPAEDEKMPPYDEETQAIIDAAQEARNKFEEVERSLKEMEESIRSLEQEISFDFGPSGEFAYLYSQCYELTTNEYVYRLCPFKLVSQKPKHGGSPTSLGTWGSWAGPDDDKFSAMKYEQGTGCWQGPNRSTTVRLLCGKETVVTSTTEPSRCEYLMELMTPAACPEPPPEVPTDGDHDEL
Description: % Inhibition (C) Glc1→ Glc0
Supplemental Figure 1: In vitro inhibition of GluII by 4. Enzyme activity assays were carried out using rat liver ER GluII with either α-p-nitrophenylglucoside ( α-PNPG, A) or ﬂuorescently labelled glycan ( B and C) as substrate. The curves show the relationship between ToP-DNJ 4 concentration and inhibition of the enzymatic activity. The iminosugar inhibits the enzymatic catalysis of the reactions indepen-dent of substrate, but with diﬀering IC 50 values: 9.0 µm for α-PNPG; 14 µm for Glc2Man7GlcNAc2; 56 µm for Glc1Man7GlcNAc2. […]
4 Enzyme Inhibition Assays
All rat enzymes were isolated from 18-week-old, male Wistar rats, while human lysosomal α-glucosidase was obtained in commercially available form from Sanoﬁ Genzyme. Inhibition of isolated glucosidases was evaluated as described previously. 3 Brieﬂy, maltase, isomaltase, sucrase, and cellobiase were used as partially puriﬁed tissue extracts. Inhibition assays for each enzyme were performed with the respective natural substrate, and release of d-glucose measured by Glucose B-test (Wako Diagnostics). Assays of rat ER α-glucosidase II and human lysosomal α-glucosidase inhibition were conducted with α-p-nitrophenylglucoside as substrate; 400 mm Na2CO3 was added to quench these reactions, and the extent of hydrolysis was evaluated as absorbance at 400 nm by spectrophotometer. […]

[2] = tested on: HCV (JFH-1) in Huh7.5 cells; assay: HCV antiviral assay in Huh7.5 cells (infectious titer by TCID50 assay); format: cell-based, hepatitis C virus; conditions: MOI 2, 96 h, titration of 4 or 50 µm of 3
Description: Supplemental Figure 3: Antiviral activity of 4 in human hepatoma Huh7.5 cell line.
(A) Huh7.5 cells were infected with DENV (serotype 2, strain 16681, multiplicity of infection = 0.1) and treated with a titration of ToP-DNJ 4 or 50 µm of tocopherol 3 for 48 h. Infectious virus titer was measured by plaque assay on LLC-MK2 cells. Counts were normalized to 100% for untreated samples.
DENV eﬀect at the concentrations tested. (B) Huh7.5 cells were infected with HCV (JFH-1, multiplicity of infection = 2) and treated with a titration of ToP-DNJ 4 or 50 µm tocopherol 3 for 96 h. Infectious virus titer was measured by TCID50 assay on […]
tested. In both panels, each data point represent the mean of triplicates, with error bars showing standard error of the mean (GraphPad Prism). […]
Huh7.5 cells were seeded in a 96-well plate at a density of 5× 10^3 cells/well in 100 µL growth media. […] The supernatant was harvested, and infectious viral titre assessed immediately in the TCID50 assay.
Huh7.5 cells were seeded in a 96-well plate at a density of 2× 10^4 cells/well in 100 µL of growth media and incubated for 18 h. The supernatants to be evaluated were diluted 1:10 in growth media, and 7 serial half-log10 dilutions were subsequently prepared in the same media. […]
each well was scored as either positive (≥ 5 stained cells) or negative. TCID50 values were calculated according to the method of Reed and Muench.8 […]

Cc1c(C)c2c(c(C)c1OCCCCCN1CC(O)C(O)C(O)C1CO)CCC(C)(CCCC(C)CCCC(C)CCCC(C)C)O2 (stereo not drawn) [Compound 4, 5′-tocopheroxypentyl-DNJ]
pIC50 ([1]; first GluII reaction, fluorescently labelled Glc2Man7GlcNAc1 substrate, read-out: IC50 for the conversion of diglucosylated to monoglucosylated glycan by GluII): 4.85
pIC50 ([1]; second GluII reaction, fluorescently labelled glycan substrate, read-out: IC50 for the conversion of monoglucosylated to nonglucosylated glycan by GluII): 4.25
anti-HCV effect (infectious virus titer) [2]: neither an anti-DENV nor anti-HCV effect was observed; also recorded: Neither 4 nor 3 showed an anti-HCV eﬀect
